The values below are quoted from earlier work in patent publication US20250216408A1, “REAGENT COMBINATION AND METHOD FOR DETECTING TARGET IMMUNOSUPPRESSANT IN WHOLE BLOOD WITHOUT CENTRIFUGATION” (Shenzhen New Industries Biomedical Engineering co., Ltd., priority 2023, published 2025).

For data set [1] the following is noted: FK506 in plasma.

In the case of `CO[C@H]1C[C@@H]2CC[C@@H](C)[C@@](O)(O2)C(=O)C(=O)N2CCCC[C@H]2C(=O)O[C@H]([C@H](C)C[C@@H]2CC[C@@H](O)[C@H](OC)C2)CC(=O)[C@H](C)/C=C(\C)[C@@H](O)[C@@H](OC)C(=O)[C@H](C)C[C@H](C)/C=C/C=C/C=C/1C` [sirolimus], the “Share of drug in whole blood taken up by / present in / bound to red blood cells” value is reported as 95%.
As to `C=CC[C@@H]1/C=C(\C)C[C@H](C)C[C@H](OC)[C@H]2O[C@@](O)(C(=O)C(=O)N3CCCC[C@H]3C(=O)O[C@H](/C(C)=C/[C@@H]3CC[C@@H](O)[C@H](OC)C3)[C@H](C)[C@@H](O)CC1=O)[C@H](C)C[C@@H]2OC` [FK506, tacrolimus], the “Share of drug in whole blood taken up by / present in / bound to red blood cells” value is 75%-80%. In addition, the “Plasma protein binding rate” value in data set [1] is given as “over 98%”.
